From patent US7223759B2, “Antibacterial 3,5-diaminopiperidine-substituted aromatic and heteroaromatic compounds” (Anadys Pharmaceuticals, Inc., priority 2003, dated 2007)
Like-named read-outs stand apart in the source and are kept apart here.

Tested on: Escherichia coli (ATCC25922) or Staphylococcus aureus (ATCC25923)
Assay: Antibacterial MIC, microdilution method in Mueller-Hinton medium
Assay type: cell-based
Conditions: Escherichia coli, 18 h, read-out: Potency (MIC)
In short: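 Read after 18 h incubation at 35° C, MIC is the lowest compound level that blocked growth. Compounds were tested in duplicate over 64–0.5 μg/ml two-fold dilutions using Mueller-Hinton microdilution per NCCLS standard.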

[1] = MIC in E. coli or S. aureus, two-fold serial dilutions 64 to 0.5 μg/ml in duplicate, 18 hours of incubation at 35° C.

SMILES	MIC	MIC [1]
NC[C@@H]1C[C@H](N)CN1c1nc(Nc2ccc3c(c2)C(=O)c2ccccc2-3)nc(N2C[C@H](N)C[C@H](N)C2)n1 [2-[4-((2S,4S)-4-Amino-2-aminomethyl-pyrrolidin-1-yl)-6-((3R,5S)-3,5-diamino-piperidin-1-yl)-[1,3,5]triazin-2-ylamino]-fluoren-9-one]	> 64 µg/mL	
Cc1ccc(S(=O)(=O)N(Cc2ccccc2)c2ccc(Nc3nc(N4C[C@H](N)C[C@H](N)C4)nc(N4C[C@H](O)C[C@@H](O)C4)n3)cc2O)cc1 [N-Benzyl-N-{4-[4-((3R,5S)-3,5-diamino-piperidin-1-yl)-6-((3R,5R)-3,5-dihydroxy-piperidin-1-yl)-[1,3,5]triazin-2-ylamino]-2-hydroxy-phenyl}-4-methyl-benzenesulfonamide]	< 64 µg/mL	
N[C@@H]1C[C@H](N)CN(c2nc(Nc3ccc(C(=O)Nc4ccc(F)c(F)c4)c(O)c3)nc(N3C[C@H](N)C[C@H](N)C3)n2)C1 [N-[4-(3,4-difluoro-phenylcarbamoyl)-3-hydroxy-phenyl]-4,6-Bis-((3R,5S)-3,5-diamino-piperidin-1-yl)-[1,3,5]triazine-2-amine]	< 16 µg/mL	
Cl.O=C(Nc1ccc(Nc2nc(NCCCn3ccnc3)nc(N3CCCCC3)n2)cc1O)c1ccc(Cl)cc1		< 64 µg/mL
COc1nc(Nc2ccc(C(=O)CC(=O)Nc3ccccc3Cl)cc2)nc(N2C[C@H](N)C[C@H](N)C2)n1.Cl [N-(2-Chloro-phenyl)-3-{4-[4-((3R,5S)-3,5-diamino-piperidin-1-yl)-6-methoxy-[1,3,5]triazin-2-ylamino]-phenyl}-3-oxo-propionamide]		< 16 µg/mL
Cc1cccc(NNc2nc(N3C[C@H](N)C[C@H](N)C3)nc(N3C[C@H](N)C[C@H](N)C3)n2)c1 [N-(4,6-Bis-((3R,5S)-3,5-diamino-piperidin-1-yl)-[1,3,5]triazin-2-yl)-N′-m-Tolyl-hydrazine]	< 64 µg/mL	
N[C@@H]1C[C@H](N)CN(c2nc(NNc3ccccn3)nc(N3C[C@H](N)C[C@H](N)C3)n2)C1 [N-(4,6-Bis-((3R,5S)-3,5-diamino-piperidin-1-yl)-[1,3,5]triazin-2-yl)-N′-Pyridin-2-yl-hydrazine]	> 64 µg/mL	
Cl.N[C@@H]1C[C@H](N)CN(c2nc(Nc3ccccc3)nc(N3C[C@H](N)C[C@H](N)C3)n2)C1 [N-phenyl-44,6-Bis-((3R,5S)-3,5-diamino-piperidin-1-yl)-[1,3,5]triazine-2-amine]		> 64 µg/mL
COc1cc(Nc2nc(N3CCCCC3)nc(N3CCCCC3)n2)ccc1NC(=O)c1ccc(Cl)cc1O.Cl [N-[4-(4-chlorro-2-hydroxy-benzoylamino)-3-methoxy-phenyl]-4,6-Bis-((3R,5S)-3,5-diamino-piperidin-1-yl)-[1,3,5]triazine-2-amine]		< 16 µg/mL
COC(=O)c1ccccc1Nc1nc(N2C[C@H](N)C[C@H](N)C2)nc(N2C[C@H](N)C[C@H](N)C2)n1 [2-[4,6-Bis-((3R,5S)-3,5-diamino-piperidin-1-yl)-[1,3,5]triazin-2-ylamino]-benzoic acid methyl ester]		> 64 µg/mL
Cl.N[C@@H]1C[C@H](N)CN(c2nc(NCc3ccco3)nc(N3C[C@H](N)C[C@H](N)C3)n2)C1 [N-furan-2-ylmethyl-4,6-Bis-((3R,5S)-3,5-diamino-piperidin-1-yl)-[1,3,5]triazine-2-amine]		> 64 µg/mL
Cc1csc(Nc2nc(N3C[C@H](N)C[C@H](N)C3)nc(N3C[C@H](N)C[C@H](N)C3)n2)n1.Cl [N-(4-methyl-thiazol-2-yl)-4,6-Bis-((3R,5S)-3,5-diamino-piperidin-1-yl)-[1,3,5]triazine-2-amine]		> 64 µg/mL
CC(=O)Nc1ccc(Nc2nc(N3C[C@H](N)C[C@H](N)C3)nc(N3C[C@H](N)C[C@H](N)C3)n2)cc1O [N-(4-acetylamino-3-hydroxy-phenyl)-4,6-Bis-((3R,5S)-3,5-diamino-piperidin-1-yl)-[1,3,5]triazine-2-amine]	> 64 µg/mL	
N[C@@H]1CC(c2nc(NC3CCNCC3)nc(N3C[C@H](N)C[C@H](N)C3)n2)C[C@H](N)C1 (stereo partly drawn) [N-piperidin-4-yl-4,6-Biss-((3R,5S)-3,5-diamino-piperidin-1-yl)-[1,3,5]triazine-2-amine]		> 64 µg/mL
CC(=O)c1ccc(Nc2nc(N3C[C@H](N)C[C@H](N)C3)nc(N3C[C@H](N)C[C@H](N)C3)n2)cc1 [N-(4-acetyl-phenyl)-4,6-Bis-((3R,5S)-3,5-diamino-piperidin-1-yl)-[1,3,5]triazine-2-amine]	< 64 µg/mL	
Cc1cc(Br)ccc1Nc1nc(N2C[C@H](N)C[C@H](N)C2)nc(N2C[C@H](N)C[C@H](N)C2)n1 [N-(4-bromo-2-methyl-phenyl)-4,6-Bis-((3R,5S)-3,5-diamino-piperidin-1-yl)-[1,3,5]triazine-2-amine]	> 64 µg/mL	

SMILES	MIC	MIC [1]
Cc1ccc(S(=O)(=O)N(Cc2ccccc2)c2ccc(Nc3nc(N4C[C@H](N)C[C@H](N)C4)nc(N4C[C@@H](N)C[C@H]4CO)n3)cc2O)cc1 [N-{4-[4-((2S,4S)-4-Amino-2-hydroxymethyl-pyrrolidin-1-yl)-6-((3R,5S)-3,5-diamino-piperidin-1-yl)-[1,3,5]triazin-2-ylamino]-2-hydroxy-phenyl}-N-benzyl-4-methyl-benzenesulfonamide]	< 64 µg/mL	
N[C@@H]1C[C@H](N)CN(c2nc(Nc3cccc(CO)c3)nc(N3C[C@H](N)C[C@H](N)C3)n2)C1 [N-(3-hydroxymethyl-phenyl)-4,6-Bis-((3R,5S)-3,5-diamino-piperidin-1-yl)-[1,3,5]triazine-2-amine]	> 64 µg/mL	
N[C@@H]1C[C@H](N)CN(c2nc(Nc3ccc(NC(=O)c4cccc(O)c4O)c(O)c3)nc(N3C[C@H](N)C[C@H](N)C3)n2)C1 [N-[4-(2,3-dihydroxy-benzoylamino)-3-hydroxy-phenyl]-4,6-Bis-((3R,5S)-3,5-diamino-piperidin-1-yl)-[1,3,5]triazine-2-amine]	< 16 µg/mL	
N[C@@H]1C[C@H](N)CN(c2nc(Nc3ccc(NC(=O)c4ccc(F)cc4O)c(Cl)c3)nc(N3C[C@H](N)C[C@H](N)C3)n2)C1 [N-[3-chloro-4-(4-fluoro-2-hydroxy-benzoylamino)-phenyl]-4,6-Bis-((3R,5S)-3,5-diamino-piperidin-1-yl)-[1,3,5]triazine-2-amine]	> 64 µg/mL	
Cl.N[C@@H]1C[C@H](N)CN(c2nc(Nc3ccc4c(c3)CCC4)nc(N3C[C@H](N)C[C@H](N)C3)n2)C1 [N-indan-5-yl-4,6-Bis-((3R,5S)-3,5-diamino-piperidin-1-yl)-[1,3,5]triazine-2-amine]		> 64 µg/mL
COc1nc(Nc2ccc(C(=O)CC(=O)Nc3ccc4c(c3)OC(F)(F)O4)cc2)nc(N2C[C@H](N)C[C@H](N)C2)n1 [3-{4-[4-((3R,5S)-3,5-Diamino-piperidin-1-yl)-6-methoxy-[1,3,5]triazin-2-ylamino]-phenyl}-N-(2,2-difluoro-benzo[1,3]dioxol-5-yl)-3-oxo-propionamide]	< 16 µg/mL	
N[C@@H]1C[C@H](N)CN(c2nc(Nc3cc(Cl)c(NC(=O)c4ccc(Cl)cc4O)c(Cl)c3)nc(N3C[C@H](N)C[C@H](N)C3)n2)C1 [N-[3,5-dichloro-4-(4-chloro-2-hydroxy-benzoylamino)-phenyl]-4,6-Bis-((3R,5S)-3,5-diamino-piperidin-1-yl)-[1,3,5]triazine-2-amine]	< 16 µg/mL	
Cl.NC(=O)c1[nH]cnc1Nc1nc(N2C[C@H](N)C[C@H](N)C2)nc(N2C[C@H](N)C[C@H](N)C2)n1 [N-(5-carbamoyl-1H-imidazol-4-yl)-4,6-Bis-((3R,5S)-3,5-diamino-piperidin-1-yl)-[1,3,5]triazine-2-amine]		> 64 µg/mL
N[C@@H]1C[C@H](N)CN(c2nc(Nc3ccc(C(=O)CC(=O)Nc4ccc(Cl)cc4)cc3)nc(N3C[C@H](N)C[C@H](N)C3)n2)C1 [N-{4-[2-(4-chloro-phenylcarbamoyl)-acetyl]-phenyl}-4,6-Bis-((3R,5S)-3,5-diamino-piperidin-1-yl)-[1,3,5]triazine-2-amine]	< 16 µg/mL	
N[C@@H]1C[C@H](N)CN(c2nc(NCc3ccc(Oc4ccccc4)cc3)nc(N3C[C@H](N)C[C@H](N)C3)n2)C1 [N-(4-phenoxy-benzyl)-4,6-Bis-((3R,5S)-3,5-diamino-piperidin-1-yl)-[1,3,5]triazine-2-amine]	> 64 µg/mL	
Cc1cc(NC(=O)c2ccc(O)cc2O)ccc1Nc1nc(N2C[C@H](N)C[C@H](N)C2)nc(N2C[C@H](N)C[C@H](N)C2)n1 [N-[4-(2,4-dihydroxy-benzoylamino)-2-methyl-phenyl]-4,6-Bis-((3R,5S)-3,5-diamino-piperidin-1-yl)-[1,3,5]triazine-2-amine]	< 64 µg/mL	
N[C@@H]1C[C@H](N)CN(c2nc(Nc3ccc(C(=O)Nc4ccc(F)c(Cl)c4)c(O)c3)nc(N3C[C@H](N)C[C@H](N)C3)n2)C1 [N-[4-(3-chloro-4-fluoro-phenylcarbamoyl)-3-hydroxy-phenyl]-4,6-Bis-((3R,5S)-3,5-diamino-piperidin-1-yl)-[1,3,5]triazine-2-amine]	< 16 µg/mL	
COc1ccc(Nc2nc(N3C[C@H](N)C[C@H](N)C3)nc(N3C[C@H](N)C[C@H](N)C3)n2)c(NC(=O)c2cccc([N+](=O)[O-])c2O)c1 [N-[2-(2-hydroxy-3-nitro-benzoylamino)-4-methoxy-phenyl]-4,6-Bis-((3R,5S)-3,5-diamino-piperidin-1-yl)-[1,3,5]triazine-2-amine]	> 64 µg/mL	
CN(Cc1cccc2ccccc12)c1nc(N2CCCCC2)nc(N2CCCCC2)n1.Cl [N,N-Methyl-naphthalen-1-ylmethyl-4,6-Bis-((3R,5S)-3,5-diamino-piperidin-1-yl)-[1,3,5]triazine-2-amine]		> 64 µg/mL
NC[C@@H]1C[C@H](N)CN1c1nc(Nc2ccc(C(=O)CC(=O)Nc3ccccc3Cl)cc2)nc(N2C[C@H](N)C[C@H](N)C2)n1 [3-{4-[4-((2S,4S)-4-Amino-2-aminomethyl-pyrrolidin-1-yl)-6-((3R,5S)-3,5-diamino-piperidin-1-yl)-[1,3,5]triazine-2-ylamino]-phenyl}-N-(2-chloro-phenyl)-3-oxo-propionamide]	< 64 µg/mL	
